Laboratory results as given in US4439444A, “Amidobenzamides, their salts and pharmaceutical compositions containing them” (Sanofi, priority 1981, dated 1984).
Entries after “also recorded” stand apart in the source; their conditions may differ. Where two headings read alike, the source gives them in different places.

Columns and labels:
[1] = target: T1, cardiac histamine H2 receptors (Cavia porcellus, UniProt P47747); assay: inhibition of the increase in frequency induced by histamine on the isolated right atrium of the guinea pig; format: cell-based; details: for Relative potency (cimetidine = 1): cardiac H2, from IC50, guinea pig right atrium
T1 construct: induced by histamine on the isolated right atrium of the guinea pig; from tissue; host or cells: isolated right atrium of the guinea pig
T1 sequence (P47747 whole entry): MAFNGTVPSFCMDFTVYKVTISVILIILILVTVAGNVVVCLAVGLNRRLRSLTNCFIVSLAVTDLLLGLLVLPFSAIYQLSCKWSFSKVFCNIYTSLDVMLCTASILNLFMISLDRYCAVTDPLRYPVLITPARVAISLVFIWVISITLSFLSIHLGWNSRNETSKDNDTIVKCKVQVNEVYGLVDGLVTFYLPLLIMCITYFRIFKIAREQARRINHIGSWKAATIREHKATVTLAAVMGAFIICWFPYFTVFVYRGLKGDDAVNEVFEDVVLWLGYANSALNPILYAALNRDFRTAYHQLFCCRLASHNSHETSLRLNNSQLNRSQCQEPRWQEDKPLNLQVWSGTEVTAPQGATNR
From the text: Such an IC50 represents the index of cardiac H2 blocking action.

[2] = target: T2, gastric histamine H2 receptors (Rattus norvegicus, UniProt P25102); assay: antisecretory activity: antagonism of histamine-induced gastric acid hypersecretion in rat (Ghosh and Schild); format: in vivo; details: for Relative potency (cimetidine = 1): gastric H2, from ID50, rat i.v.; for ED50: rat, read-out: ID50 (dose which inhibits by 50% the gastric hypersecretion induced by histamine); for antisecretory (gastric H2 blocking) activity in words: comparison from Table I
T2 construct: the gastric secretion is measured by perfusion of a physiological solution at a constant speed in the stomach of the animal; from tissue; host or cells: stomach of the living rat (in vivo, intravenous histamine infusion)
T2 sequence (P25102 whole entry, the tested form may be a part): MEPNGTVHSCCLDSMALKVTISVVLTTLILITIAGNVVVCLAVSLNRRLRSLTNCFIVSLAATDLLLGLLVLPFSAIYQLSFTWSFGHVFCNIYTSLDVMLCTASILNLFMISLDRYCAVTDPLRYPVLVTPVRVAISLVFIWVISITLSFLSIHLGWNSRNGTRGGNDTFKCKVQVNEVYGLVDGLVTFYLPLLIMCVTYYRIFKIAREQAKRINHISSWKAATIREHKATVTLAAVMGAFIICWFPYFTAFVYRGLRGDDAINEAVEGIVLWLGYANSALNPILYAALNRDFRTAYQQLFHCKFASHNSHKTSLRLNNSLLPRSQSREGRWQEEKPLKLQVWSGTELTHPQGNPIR
Protocol: According to this test, a gastric acid hypersecretion is induced by intravenous infusion of a sub-maximal dose of histamine equivalent to 15 mcmol/kg/hour and the gastric secretion is measured by perfusion of a physiological solution at a constant speed in the stomach of the animal.
Such a ID50 represents the index of the gastric H2 blocking action.

[3] = test system: immature Sprague Dawley rats, castrated, testosterone-stimulated genitals and levator ani muscle; details: rat, in vivo, ip, 200 mg/kg/day
Protocol: Testosterone was administered by sub-cutaneous route, suspended in a vehicle for steroids, both at the dose of 0.2 mg/animal/day, and 0.4 mg/animal/day. […] As a control it was used a lot of animals treated with the vehicles only. The treatment lasted 8 days. The animals were killed 24 hours after the last injection, the ventral prostrate, the seminal vescicles and the levator ani were immediately drawn and weighed.

cardiac H2 receptors = details: Clinica Terapeutica, 1981, 96, 81-91; cited from earlier work
gastric acid secretion = details: rat; as oxalate; cited from earlier work
[4] = intravenous route, single administration, histamine infusion 15 mcmol/kg/hour

| Compound | Relative potency (cimetidine = 1) [1] | Relative potency (cimetidine = 1) [2] | ED50 [2, 4] [µmol/kg] | further results |
| --- | --- | --- | --- | --- |
| CN(C)Cc1ccc(CSCCNC(=O)c2cccc(NS(C)(=O)=O)c2)o1 [CM 57822, 3-methanesulfonamido-N-[2-(5-dimethylaminomethylfuran-2-ylmethylthio)ethyl]benzamide] | 0.2 | 0.97 | 0.98 | – |
| CN(C)Cc1ccc(CSCCNC(=O)c2cccc(NS(=O)(=O)c3ccccc3)c2)o1 [CM 57888, 3-benzenesulfonamido-N-[2-(5-dimethylaminomethylfuran-2-ylmethylthio)ethyl]benzamide] | – | – | – | effect when testosterone was administered at the dose of 0.4 mg/animal/day [3]: did not exhibit any effect |
| CN/C(=N/CCSCc1nc[nH]c1C)NC#N [Cimetidine, 2-cyano-1-methyl-3-[2[(5-methylimidazol-4-yl)methylthio]ethyl]guanidine, reference compound] | – | – | – | side effects in the treatment of the ulcerous disease (cardiac H2 receptors): bradycardia and of the asystolia observed as side effects; ED50 ([2]; iv): 0.95 µmol/kg |
| CN(C)Cc1ccc(CSCCNC(=O)c2ccc(S(N)(=O)=O)cc2)o1 [Compound A, N-[2-(5-dimethylaminomethylfuran-2-ylmethylthio)ethyl]-4-sulfamoyl benzamide, reference compound] | 1.3 | 0.42 | 2.26 | cardiac H2 blocking activity in words (compared with cimetidine) ([1]; comparison from Table II): more active |
| CN(C)Cc1ccc(CSCCNC(=O)c2ccc(S(N)(=O)=O)cc2)o1 [N-[2-(5-dimethylaminomethylfuran-2-ylmethylthio)ethyl]-4-sulfamoylbenzamide] | – | – | – | ED50 in the gastric acid secretion inhibiting activity (gastric acid secretion): 2.54 mg/kg |
| CNC(=C[N+](=O)[O-])NCCSCc1ccc(CN(C)C)o1 [Ranitidine, N-[2[[5-[(dimethylamino)methyl]furfuryl]thio]ethyl]-N'-methyl-2-nitro-1,1-ethenediamine, reference compound] | 5 | 3.80 | – | ED50 ([2]; iv): 0.25 µmol/kg |
| CN(C)Cc1ccc(CSCCNC(=O)c2cccc(NC(=O)c3ccc[n+]([O-])c3)c2)o1 [SR 57912, 3-[(3-pyridine 1-oxyde)carboxamido]-N-[2-(5-dimethylaminomethylfuran-2-ylmethylthio)ethyl]benzamide] | 0.08 | 2.88 | 0.33 | antisecretory (gastric H2 blocking) activity in words [2]: very powerful; also recorded: very close to that of ranitidine |
| CN(C)Cc1ccc(CSCCNC(=O)c2cccc(NC(=O)c3cccnc3)c2)o1.O=C(O)C(=O)O.O=C(O)C(=O)O [SR 57927 A, 3-(3-pyridinecarboxamido)-N-[2-(5-dimethylaminomethylfuran-2-ylmethylthio)ethyl]benzamide dioxalate] | – | 0.82 | – | ED50 ([2]; iv): 1.15 µmol/kg |

Continued, in another order:

| Relative potency (cimetidine = 1) [1] | Relative potency (cimetidine = 1) [2] | ED50 [2, 4] [µmol/kg] | Compound | further results |
| --- | --- | --- | --- | --- |
| 0.06 | 0.82 | 1.15 | CN(C)Cc1ccc(CSCCNC(=O)c2cccc(NC(=O)c3cccs3)c2)o1 [SR 57922, 3-(2-thienylcarboxamido)-N-[2-(5-dimethylaminomethylfuran-2-ylmethylthio)ethyl]benzamide] | – |
| – | 0.52 | 1.82 | CN(C)Cc1ccc(CSCCNC(=O)c2cccc(NS(=O)(=O)c3cccnc3)c2)o1 [SR 57933, 3-(3-pyridinesulfonamido)-N-[2-(5-dimethylaminomethylfuran-2-ylmethylthio)ethyl]benzamide] | – |
| – | 1.02 | 0.93 | CN(C)Cc1ccc(CSCCNC(=O)c2cccc(NS(=O)(=O)c3cccs3)c2)o1 [SR 57975, 3-(2-thiophenesulfonamido)-N-[2-(5-dimethylaminomethylfuran-2-ylmethylthio)ethyl]benzamide] | – |
| – | 1.94 | 0.49 | CCCCS(=O)(=O)Nc1cccc(C(=O)NCCSCc2ccc(CN(C)C)o2)c1 [SR 57981 A, 3-butanesulfonamido-N-[2-(5-dimethylaminomethylfuran-2-ylmethylthio)ethyl]benzamide] | antisecretory (gastric H2 blocking) activity in words [2]: very powerful |
